# Test results: the NIST ThermoML archive (doi:10.1016/j.jct.2014.07.001)
# ± gives the expanded uncertainty stated by the source.
# Settings: Drop volume
SMILES,surface tension liquid-gas (293.15 K) [mN/m],surface tension liquid-gas (303.15 K) [mN/m],surface tension liquid-gas (313.15 K) [mN/m],surface tension liquid-gas (323.15 K) [mN/m]
CCCC[n+]1ccc(C)cc1.F[B-](F)(F)F [1-butyl-4-methylpyridinium tetrafluoroborate],45.82 ± 0.54,45.09 ± 0.54,44.41 ± 0.53,43.71 ± 0.52
CCCC[n+]1cccc(C)c1.F[B-](F)(F)F [1-butyl-3-methylpyridinium tetrafluoroborate],45.21 ± 0.54,44.48 ± 0.53,43.8 ± 0.52,43.24 ± 0.52
CCCC[n+]1ccccc1.F[B-](F)(F)F [1-butylpyridinium tetrafluoroborate],46.9 ± 0.56,46.3 ± 0.55,45.69 ± 0.54,45.11 ± 0.54

# The remaining lines, values ahead:
surface tension liquid-gas (293.15 K) [mN/m],surface tension liquid-gas (303.15 K) [mN/m],surface tension liquid-gas (313.15 K) [mN/m],surface tension liquid-gas (323.15 K) [mN/m],SMILES
22.6 ± 0.26,21.81 ± 0.25,20.93 ± 0.24,20.05 ± 0.23,CO [methanol]
51.29 ± 0.61,50.51 ± 0.6,49.79 ± 0.59,49.03 ± 0.58,CCC[n+]1ccccc1.F[B-](F)(F)F [1-propylpyridinium tetrafluoroborate]
22.28 ± 0.26,21.49 ± 0.25,20.66 ± 0.24,19.84 ± 0.23,CCO [ethanol]
